Assay results reported in PubChem BioAssay AID2060897 (Molecular Pharmacology Branch, DTP, NCI, 2025).

Tested on: 966289-007-R4-J1-PDC complex spheroid viability
Experiment: Anticancer human tumor 966289-007-R4-J1-PDC patient-derived pancreatic adenocarcinoma cell line growth inhibition [RAS]
Settings: for IC50: curve of first compound; for viability, T/C: stronger effect = lower value; active = viability on the fitted dose curve at most 10% of control; inactive = the rest
Outline: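 Agents were tested in combination matrices in half-log decrements from a top concentration at or near clinical Cmax (10 microM if undetermined). Targets were multi-cell spheroids of tumour lines plus HUVEC and MSC stromal cells.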

[1] = second compound 0.0316 µM, first compound 0.0316 µM
[2] = second compound 0.0316 µM, first compound 0.1 µM
[3] = second compound 0.0316 µM, first compound 0.316 µM
[4] = second compound 0.0316 µM, first compound 1 µM
[5] = second compound 0.0316 µM, first compound 3.16 µM
[6] = second compound 0.0316 µM, first compound 10 µM
[7] = second compound 0.1 µM, first compound 0.0316 µM
[8] = second compound 0.1 µM, first compound 0.1 µM
[9] = second compound 0.1 µM, first compound 0.316 µM
[10] = second compound 0.1 µM, first compound 1 µM
[11] = second compound 0.1 µM, first compound 3.16 µM
[12] = second compound 0.1 µM, first compound 10 µM
[13] = second compound 0.316 µM, first compound 0.0316 µM
[14] = second compound 0.316 µM, first compound 0.1 µM
[15] = second compound 0.316 µM, first compound 0.316 µM
[16] = second compound 0.316 µM, first compound 1 µM
[17] = second compound 0.316 µM, first compound 3.16 µM
[18] = second compound 0.316 µM, first compound 10 µM
[19] = second compound 1 µM, first compound 0.0316 µM
[20] = second compound 1 µM, first compound 0.1 µM
[21] = second compound 1 µM, first compound 0.316 µM
[22] = second compound 1 µM, first compound 1 µM
[23] = second compound 1 µM, first compound 3.16 µM
[24] = second compound 1 µM, first compound 10 µM
[25] = second compound 0.000949 µM, first compound 0.0316 µM
[26] = second compound 0.000949 µM, first compound 0.1 µM
[27] = second compound 0.000949 µM, first compound 0.316 µM
[28] = second compound 0.000949 µM, first compound 1 µM
[29] = second compound 0.000949 µM, first compound 3.16 µM
[30] = second compound 0.000949 µM, first compound 10 µM
[31] = second compound 0.003 µM, first compound 0.0316 µM
[32] = second compound 0.003 µM, first compound 0.1 µM
[33] = second compound 0.003 µM, first compound 0.316 µM
[34] = second compound 0.003 µM, first compound 1 µM
[35] = second compound 0.003 µM, first compound 3.16 µM
[36] = second compound 0.003 µM, first compound 10 µM
[37] = second compound 0.00949 µM, first compound 0.0316 µM
[38] = second compound 0.00949 µM, first compound 0.1 µM
[39] = second compound 0.00949 µM, first compound 0.316 µM
[40] = second compound 0.00949 µM, first compound 1 µM
[41] = second compound 0.00949 µM, first compound 3.16 µM
[42] = second compound 0.00949 µM, first compound 10 µM
[43] = second compound 0.03 µM, first compound 0.0316 µM
[44] = second compound 0.03 µM, first compound 0.1 µM
[45] = second compound 0.03 µM, first compound 0.316 µM
[46] = second compound 0.03 µM, first compound 1 µM
[47] = second compound 0.03 µM, first compound 3.16 µM
[48] = second compound 0.03 µM, first compound 10 µM
[49] = second compound 0.0949 µM, first compound 0.0316 µM
[50] = second compound 0.0949 µM, first compound 0.1 µM
[51] = second compound 0.0949 µM, first compound 0.316 µM
[52] = second compound 0.0949 µM, first compound 1 µM
[53] = second compound 0.0949 µM, first compound 3.16 µM
[54] = second compound 0.0949 µM, first compound 10 µM
[55] = second compound 0.3 µM, first compound 0.0316 µM
[56] = second compound 0.3 µM, first compound 0.1 µM
[57] = second compound 0.3 µM, first compound 0.316 µM
[58] = second compound 0.3 µM, first compound 1 µM
[59] = second compound 0.3 µM, first compound 3.16 µM
[60] = second compound 0.3 µM, first compound 10 µM
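Also: spheroids exposed to agents for one week before readout.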
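For viability, T/C in this document: percent viability relative to DMSO vehicle control wells as 100%.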

CC1(O)CCCC1n1c(=O)c(C(F)F)cc2cnc(NC3CCN(S(C)(=O)=O)CC3)nc21 (stereo not drawn) + C#Cc1c(F)ccc2cc(O)cc(-c3ncc4c(N5CC6CCC(C5)N6)nc(OCC56CCCN5CC(F)C6)nc4c3F)c12
181 nM: IC50 (second compound 0.1 µM)
232 nM: IC50 (second compound 0.316 µM)
220 nM: IC50 (second compound 1 µM)
142 nM: IC50 (second compound 0.0316 µM)
221 nM: IC50 (second compound 3.16 µM)
115 nM: IC50 (second compound 10 µM)
inactive: viability, T/C [1] 138% | viability, T/C [2] 57% | viability, T/C [3] 28.4% | viability, T/C [4] 33.5% | viability, T/C [5] 32.1% | viability, T/C [6] 5.74% | viability, T/C [7] 124% | viability, T/C [8] 70.9% | viability, T/C [9] 26.7% | viability, T/C [10] 33.5% | viability, T/C [11] 27.7% | viability, T/C [12] 5.83% | viability, T/C [13] 128% | viability, T/C [14] 71.8% | viability, T/C [15] 33.9% | viability, T/C [16] 35.5% | viability, T/C [17] 31.4% | viability, T/C [18] 5.81% | viability, T/C [19] 116% | viability, T/C [20] 72.4% | viability, T/C [21] 30.1% | viability, T/C [22] 33% | viability, T/C [23] 33.2% | viability, T/C [24] 5.07% | viability, T/C (second compound 3.16 µM, first compound 0.0316 µM) 128% | viability, T/C (second compound 3.16 µM, first compound 0.1 µM) 73.5% | viability, T/C (second compound 3.16 µM, first compound 0.316 µM) 30.6% | viability, T/C (second compound 3.16 µM, first compound 1 µM) 32.5% | viability, T/C (second compound 3.16 µM, first compound 3.16 µM) 33.3% | viability, T/C (second compound 3.16 µM, first compound 10 µM) 5.29% | viability, T/C (second compound 10 µM, first compound 0.0316 µM) 106% | viability, T/C (second compound 10 µM, first compound 0.1 µM) 47.8% | viability, T/C (second compound 10 µM, first compound 0.316 µM) 33% | viability, T/C (second compound 10 µM, first compound 1 µM) 30.2% | viability, T/C (second compound 10 µM, first compound 3.16 µM) 38.3% | viability, T/C (second compound 10 µM, first compound 10 µM) 0.93%

NC1c2ccccc2OC12CCN(c1cnc3c(N4CCCc5ncccc54)n[nH]c3n1)CC2 (stereo not drawn) + CCn1c(-c2cccnc2C(C)OC)c2c3cc(ccc31)N1CCOC(CC(NC(=O)C(C(C)C)N(C)C(=O)C3(F)CCN(C(=O)C#CC(C)(C)N(C)C)CC3)C(=O)N3CCCC(N3)C(=O)OCC(C)(C)C2)C1
inactive: viability, T/C [25] 113% | viability, T/C [26] 81.5% | viability, T/C [27] 109% | viability, T/C [28] 69.6% | viability, T/C [29] 82.1% | viability, T/C [30] 74.5% | viability, T/C [31] 113% | viability, T/C [32] 59% | viability, T/C [33] 102% | viability, T/C [34] 63.4% | viability, T/C [35] 91.9% | viability, T/C [36] 96.9% | viability, T/C [37] 92.4% | viability, T/C [38] 76.4% | viability, T/C [39] 77.6% | viability, T/C [40] 88.4% | viability, T/C [41] 104% | viability, T/C [42] 93.2% | viability, T/C [43] 62.7% | viability, T/C [44] 73.7% | viability, T/C [45] 96.9% | viability, T/C [46] 74.3% | viability, T/C [47] 104% | viability, T/C [48] 94.8% | viability, T/C [49] 80.9% | viability, T/C [50] 91.1% | viability, T/C [51] 128% | viability, T/C [52] 91.8% | viability, T/C [53] 117% | viability, T/C [54] 107% | viability, T/C [55] 94.4% | viability, T/C [56] 89.3% | viability, T/C [57] 96% | viability, T/C [58] 103% | viability, T/C [59] 147% | viability, T/C [60] 91.9%
> 10000 nM: IC50 (second compound 0.000949 µM) | IC50 (second compound 0.003 µM) | IC50 (second compound 0.00949 µM) | IC50 (second compound 0.03 µM) | IC50 (second compound 0.0949 µM) | IC50 (second compound 0.3 µM)

Cc1nc(N2CCC3(CC2)COC(C)C3N)c(CO)nc1Sc1ccnc(N)c1Cl (stereo not drawn) + CCn1c(-c2cc(N3CCN(C)CC3)cnc2C(C)OC)c2c3cc(ccc31)-c1csc(n1)CC(NC(=O)C1CC1C)C(=O)N1CCCC(N1)C(=O)OCC(C)(C)C2
inactive: viability, T/C [25] 130% | viability, T/C [26] 121% | viability, T/C [27] 107% | viability, T/C [28] 85.4% | viability, T/C [29] 93.8% | viability, T/C [30] 115% | viability, T/C [31] 114% | viability, T/C [32] 92.9% | viability, T/C [33] 94.1% | viability, T/C [34] 86.7% | viability, T/C [35] 81.5% | viability, T/C [36] 97.1% | viability, T/C [37] 106% | viability, T/C [38] 99.2% | viability, T/C [39] 84.4% | viability, T/C [40] 122% | viability, T/C [41] 86.1% | viability, T/C [42] 97.7% | viability, T/C [43] 87.4% | viability, T/C [44] 69.8% | viability, T/C [45] 102% | viability, T/C [46] 107% | viability, T/C [47] 79.9% | viability, T/C [48] 102% | viability, T/C [49] 75.6% | viability, T/C [50] 131% | viability, T/C [51] 86.9% | viability, T/C [52] 119% | viability, T/C [53] 113% | viability, T/C [54] 117% | viability, T/C [55] 92.3% | viability, T/C [56] 88.6% | viability, T/C [57] 110% | viability, T/C [58] 108% | viability, T/C [59] 111% | viability, T/C [60] 103%
> 10000 nM: IC50 (second compound 0.000949 µM) | IC50 (second compound 0.003 µM) | IC50 (second compound 0.00949 µM) | IC50 (second compound 0.03 µM) | IC50 (second compound 0.0949 µM) | IC50 (second compound 0.3 µM)

CCC(CC)c1cc(NC2CCC(N)C2)n2nccc2n1 (stereo not drawn) + C=CC(=O)N1CCN(c2nc(OCC3CCCN3C)nc3c(F)c(-c4nc(N)cc(C)c4C(F)(F)F)c(Cl)cc23)C(C)C1
1860 nM: IC50 (second compound 0.316 µM)
1900 nM: IC50 (second compound 0.00316 µM)
1850 nM: IC50 (second compound 0.0316 µM)
1830 nM: IC50 (second compound 0.01 µM)
1880 nM: IC50 (second compound 0.1 µM)
active: viability, T/C (second compound 0.00316 µM, first compound 3.16 µM) 2.16% | viability, T/C (second compound 0.00316 µM, first compound 10 µM) 2.13% | viability, T/C (second compound 0.01 µM, first compound 3.16 µM) 2.2% | viability, T/C (second compound 0.01 µM, first compound 10 µM) 2.15% | viability, T/C [5] 2.15% | viability, T/C [6] 1.75% | viability, T/C [11] 2.07% | viability, T/C [12] 2.09% | viability, T/C [17] 2.42% | viability, T/C [18] 2.33% | viability, T/C [23] 2.27% | viability, T/C [24] 2.77%
inactive: viability, T/C (second compound 0.00316 µM, first compound 0.0316 µM) 104% | viability, T/C (second compound 0.00316 µM, first compound 0.1 µM) 93.6% | viability, T/C (second compound 0.00316 µM, first compound 0.316 µM) 112% | viability, T/C (second compound 0.00316 µM, first compound 1 µM) 131% | viability, T/C (second compound 0.01 µM, first compound 0.0316 µM) 99.5% | viability, T/C (second compound 0.01 µM, first compound 0.1 µM) 95.7% | viability, T/C (second compound 0.01 µM, first compound 0.316 µM) 101% | viability, T/C (second compound 0.01 µM, first compound 1 µM) 114% | viability, T/C [1] 92% | viability, T/C [2] 102% | viability, T/C [3] 103% | viability, T/C [4] 123% | viability, T/C [7] 103% | viability, T/C [8] 103% | viability, T/C [9] 111% | viability, T/C [10] 117% | viability, T/C [13] 103% | viability, T/C [14] 97.9% | viability, T/C [15] 98.8% | viability, T/C [16] 125% | viability, T/C [19] 91.4% | viability, T/C [20] 92.1% | viability, T/C [21] 119% | viability, T/C [22] 113%
1840 nM: IC50 (second compound 1 µM)
